This note sets out measurements from patent US11384078B2, “5,6-fused-bicyclic compounds and compositions for the treatment of parasitic diseases” (NOVARTIS AG, priority 2017, dated 2022).

Molecules are shown by their SMILES. Like-named read-outs stand apart in the source and are kept apart here.

What all share (assay type): cell-based
The test system of assay [1] is Trypanosoma cruzi amastigotes cultured in 3T3 fibroblast cells. Kind of assay: Assay for growth inhibition of kinetoplastid parasite Trypanosoma cruzi (beta-galactosidase Tulahuen strain, CPRG readout). The conditions noted are these: T. cruzi amastigotes in 3T3 fibroblast cells, read-out: Buckner infectious T. cruzi EC50. The procedure, abridged:
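3T3 fibroblasts (1,000 cells/well) plated overnight, treated with compound in DMSO, then infected with 10,000 Lac-Z-expressing Tulahuen trypomastigotes. After 6 days, 0.6 mM CPRG with 0.6% NP-40 added for 2 h at room temperature; absorbance gives relative intracellular amastigote numbers. Benznidazole and nifurtimox serve as positive controls.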

Assay [2] relates to Leishmania donovani axenic amastigote. Put plainly: In vitro assay for growth inhibition of Leishmania donovani axenic amastigote (Cell TiterGlo luminescence). The conditions noted are these: L. donovani axenic amastigotes in vitro, read-out: L. donovani amastigotes EC50. The procedure, abridged: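 Axenic L. donovani amastigotes (9600/well) grown at 37 °C, 5% CO2 in supplemented RPMI 1640, pH 5.5, with compound added from DMSO. After two days, viability read by CellTiter-Glo luminescence against DMSO and control-compound wells.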
(Cellular ATP, detected with luciferase, serves as a proxy for viable cell number.)

Assay [3] concerns Trypanosoma brucei brucei (Lister 427) strain. Kind of assay: Assay for growth inhibition against Trypanosoma brucei brucei (Cell TiterGlo ATP luminescence). The conditions noted are these: T. brucei brucei (Lister 427), read-out: T. Brucei (HAT) EC50. The method, boiled down:
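T. b. brucei Lister 427 grown in HMI-9 with 10% FBS and 10% serum plus, seeded at 10,000 parasites/mL with 10-point threefold compound dilutions in duplicate, 37 °C for 2 days. Viability read as ATP luminescence 30 min after Cell TiterGlo; IC50 versus untreated controls.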

For assay [4], the system named is L. donovani HU3 strain in mouse peritoneal macrophages. Kind of assay: Assay for inhibition of parasitemia of Leishmania donovani in mouse macrophages (SYBR Green nuclei count, high-content imaging). The conditions noted are these: L. donovani in mouse peritoneal macrophages, read-out: L. donovani in Mouse Macrophages EC50. The procedure, abridged:
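Peritoneal macrophages from uninfected BALB/c mice were infected for 24 h with spleen-derived L. donovani HU3 (4×10^5 parasites per 2×10^4 macrophages), then cultured with compound for 5 days at 37° C, 5% CO2. After fixation and permeabilization, parasite nuclei were stained with SYBR Green and counted by high-content imaging.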

The mark [5] stands for this setting: Leishmania donovani, Peritoneal macrophage.

On to `CC(C)CCc1cnc2nn(-c3cc(NC(=O)N4CC(F)C4)ccc3F)cc2c1` [Compound 27, 3-fluoro-N-{4-fluoro-3-[5-(3-methylbutyl)-2H-pyrazolo[3,4-b]pyridin-2-yl]phenyl}azetidine-1-carboxamide], for which the EC50 in assay [1] (Trypanosoma cruzi, Fibroblast) was 38 nM; in assay [2] (Leishmania donovani), 33 nM; in assay [3] (Trypanosoma brucei), below 23 nM; in assay [4] (setting [5]), 15 nM.

Consider `Cc1cccnc1-c1cnc2nn(-c3cc(NC(=O)c4oc(CO)nc4C)ccc3F)cc2c1` [Compound 334, N-(4-fluoro-3-(5-(3-methylpyridin-2-yl)-2H-pyrazolo[3,4-b]pyridin-2-yl)phenyl)-2-(hydroxymethyl)-4-methyloxazole-5-carboxamide], for which the EC50 in assay [1] (Trypanosoma cruzi, Fibroblast) turned out to be 1460 nM; in assay [2] (Leishmania donovani), 236 nM; in assay [3] (Trypanosoma brucei), 269 nM; in assay [4] (setting [5]) it was 1870 nM.

With `O=C(Nc1ccc(F)c(-n2cc3cc(-c4ccccn4)cnc3n2)c1)[C@H]1C[C@@H]1F` (single isomer, unassigned) [Compound 273, (1 S,2R)-2-fluoro-N-(4-fluoro-3-(5-(pyridin-2-yl)-2H-pyrazolo[3,4-b]pyridin-2-yl)phenyl)cyclopropane-1-carboxamide or (1R,2S)-2-fluoro-N-(4-fluoro-3-(5-(pyridin-2-yl)-2H-pyrazolo[3,4-b]pyridin-2-yl)phenyl)cyclopropane-1-carboxamide], the EC50 in assay [1] is 17 nM; in assay [2] it was 27 nM; in assay [3], 45 nM; in assay [4], 6 nM.

Take `O=C(Nc1ccc(F)c(-n2cc3cc(NC4CC4)cnc3n2)c1)N1CC(F)C1` [Compound 249, N-{3-[5-(cyclopropylamino)-2H-pyrazolo[3,4-b]pyridin-2-yl]-4-fluorophenyl}-3-fluoroazetidine-1-carboxamide]: the EC50 in assay [1] (Trypanosoma cruzi, Fibroblast) came to 110 nM; in assay [2] (Leishmania donovani), 864 nM; in assay [3] (Trypanosoma brucei), 5 nM; in assay [4] (setting [5]), 125 nM.

With `CC(C)c1cnc2nn(-c3cc(NC(=O)c4cnccn4)ccc3F)cc2c1` [Compound 87, N-(4-fluoro-3-(5-isopropyl-2H-pyrazolo[3,4-b]pyridin-2-yl)phenyl)pyrazine-2-carboxamide], the concentration for a half-maximal effect (EC50) was 16 nM in assay [1] (Trypanosoma cruzi, Fibroblast); 62 nM in assay [2] (Leishmania donovani); below 23 nM in assay [3] (Trypanosoma brucei); 71 nM in assay [4] (setting [5]).

As for `O=C(Nc1ccc(F)c(-n2cc3cc(-c4ncccc4Cl)cnc3n2)c1)N1CCC1` [Compound 315, N-{3-[5-(3-chloropyridin-2-yl)-2H-pyrazolo[3,4-b]pyridin-2-yl]-4-fluorophenyl}azetidine-1-carboxamide], the EC50 in assay [1] (Trypanosoma cruzi, Fibroblast) stood at 1 nM; in assay [2] (Leishmania donovani), 2 nM; in assay [3] (Trypanosoma brucei), 5 nM; in assay [4] (setting [5]) it was 2 nM.

`O=C(Nc1ccc(F)c(-n2cc3cc(N4CC5(CCO5)C4)cnc3n2)c1)N1CC(F)C1` [Compound 201, 3-fluoro-N-[4-fluoro-3-(5-{1-oxa-6-azaspiro[3.3]heptan-6-yl}-2H-pyrazolo[3,4-b]pyridin-2-yl)phenyl]azetidine-1-carboxamide]: the EC50 in assay [1] (Trypanosoma cruzi, Fibroblast) came to 20 nM; in assay [2] (Leishmania donovani) it was 192 nM; in assay [3] (Trypanosoma brucei) it was 5 nM; in assay [4] (setting [5]), 4 nM.

On to `O=C(Nc1ccc(F)c(-n2cc3cc(C4CCOCC4)cnc3n2)c1)N1CCC1` [Compound 160, N-{4-fluoro-3-[5-(oxan-4-yl)-2H-pyrazolo[3,4-b]pyridin-2-yl]phenyl}azetidine-1-carboxamide], for which the 50% effective concentration (EC50) was 5.1 nM in assay [1] (Trypanosoma cruzi, Fibroblast); 4.3 nM in assay [2] (Leishmania donovani); below 23 nM in assay [3] (Trypanosoma brucei); 9.8 nM in assay [4] (setting [5]).

Turning to `CC(C)c1cnc2nn(-c3cc(NC(=O)CC(F)(F)F)ccc3F)cc2c1` [Compound 212, 3,3,3-trifluoro-N-{4-fluoro-3-[5-(propan-2-yl)-2H-pyrazolo[3,4-b]pyridin-2-yl]phenyl}propanamide], the EC50 in assay [1] (Trypanosoma cruzi, Fibroblast) came to 1750 nM; in assay [2] (Leishmania donovani), 11300 nM; in assay [3] (Trypanosoma brucei), 2030 nM; in assay [4] (setting [5]), 8860 nM.

On to `CC(C)(C)c1cnc2nn(-c3cc(NC(=O)N4CC(F)(F)C4)ccc3F)cc2c1` [Compound 33, N-(3-{5-tert-butyl-2H-pyrazolo[3,4-b]pyridin-2-yl}-4-fluorophenyl)-3,3-difluoroazetidine-1-carboxamide], for which the EC50 in assay [1] (Trypanosoma cruzi, Fibroblast) worked out at 720 nM; in assay [2] (Leishmania donovani), 290 nM; in assay [3] (Trypanosoma brucei) it was 280 nM; in assay [4] (setting [5]) it was 560 nM.

Consider `CN(C)c1cnc2nn(-c3cc(NC(=O)c4ccco4)ccc3F)cc2c1` [Compound 140, N-{3-[5-(dimethylamino)-2H-pyrazolo[3,4-b]pyridin-2-yl]-4-fluorophenyl}furan-2-carboxamide], for which the EC50 in assay [1] (Trypanosoma cruzi, Fibroblast) was 23 nM; in assay [2] (Leishmania donovani), 100 nM; in assay [3] (Trypanosoma brucei), below 23 nM; in assay [4] (setting [5]), 41 nM.

Regarding `O=C(Nc1ccc(F)c(-n2cc3cc(N4CC(F)(F)C4)cnc3n2)c1)N1CC(F)(F)C1` [Compound 299, N-{3-[5-(3,3-difluoroazetidin-1-yl)-2H-pyrazolo[3,4-b]pyridin-2-yl]-4-fluorophenyl}-3,3-difluoroazetidine-1-carboxamide], the EC50 in assay [1] (Trypanosoma cruzi, Fibroblast) was 14 nM; in assay [2] (Leishmania donovani), 29 nM; in assay [3] (Trypanosoma brucei), 5 nM; in assay [4] (setting [5]), 7 nM.

Turning to `O=C(Nc1ccc(F)c(-n2cc3cc(-c4ccccn4)cnc3n2)c1)N1CC(F)(F)C1` [Compound 39, 3,3-difluoro-N-(4-fluoro-3-(5-(pyridin-2-yl)-2H-pyrazolo[3,4-b]pyridin-2-yl)phenyl)azetidine-1-carboxamide], the EC50 in assay [1] (Trypanosoma cruzi, Fibroblast) was 2 nM; in assay [2] (Leishmania donovani) it was 2.4 nM; in assay [3] (Trypanosoma brucei), below 23 nM; in assay [4] (setting [5]), 3.8 nM.

As for `O=C1CCC2(CN(c3cnc4nn(-c5cc(NC(=O)N6CC(F)C6)ccc5F)cc4c3)C2)N1` [Compound 245, 3-fluoro-N-[4-fluoro-3-(5-{6-oxo-2,5-diazaspiro[3.4]octan-2-yl}-2H-pyrazolo[3,4-b]pyridin-2-yl)phenyl}azetidine-1-carboxamide], the EC50 in assay [1] (Trypanosoma cruzi, Fibroblast) was found to be 951 nM; in assay [2] (Leishmania donovani), 311 nM; in assay [3] (Trypanosoma brucei), 62 nM; in assay [4] (setting [5]), 1490 nM.

For `CC(C)c1cnc2nn(-c3cc(NC(=O)C4(C(F)(F)F)CC4)ccc3F)cc2c1` [Compound 209, N-{4-fluoro-3-[5-(propan-2-yl)-2H-pyrazolo[3,4-b]pyridin-2-yl]phenyl}-1-(trifluoromethyl)cyclopropane-1-carboxamide], the EC50 came out at 5090 nM in assay [1] (Trypanosoma cruzi, Fibroblast); 25000 nM in assay [2] (Leishmania donovani); 6540 nM in assay [3] (Trypanosoma brucei); 381 nM in assay [4] (setting [5]).

`O=C(Nc1ccc(F)c(-n2cc3cc(N4CC5(COC5)C4)cnc3n2)c1)N1CC(F)C1` [Compound 171, 3-fluoro-N-[4-fluoro-3-(5-{2-oxa-6-azaspiro[3.3]heptan-6-yl}-2H-pyrazolo[3,4-b]pyridin-2-yl)phenyl}azetidine-1-carboxamide]: the EC50 in assay [1] (Trypanosoma cruzi, Fibroblast) was 47 nM; in assay [2] (Leishmania donovani) it was 9.5 nM; in assay [3] (Trypanosoma brucei) it was below 23 nM; in assay [4] (setting [5]), 16 nM.

As for `Cc1nc(C)c(C(=O)Nc2ccc(F)c(-n3cc4cc(C5CCOCC5)cnc4n3)c2)o1` [Compound 169, N-{4-fluoro-3-[5-(oxan-4-yl)-2H-pyrazolo[3,4-b]pyridin-2-yl]phenyl}-2,4-dimethyl-1,3-oxazole-5-carboxamide], the EC50 in assay [1] (Trypanosoma cruzi, Fibroblast) is 14 nM; in assay [2] (Leishmania donovani), 10 nM; in assay [3] (Trypanosoma brucei), below 23 nM; in assay [4] (setting [5]), 30 nM.

As usually defined, the EC50 is the concentration needed to bring the measured effect to its halfway point.
